[1] = in tetrachloromethane, 268.15 K
[2] = in tetrachloromethane, 273.15 K
[3] = in tetrachloromethane, 278.15 K
[4] = in tetrachloromethane, 288.15 K
[5] = in tetrachloromethane, 298.15 K
[6] = in tetrachloromethane, 308.15 K
[7] = in tetrachloromethane, 318.15 K

For `N#Cc1ccncc1`, the solubility (mole fraction) (in acetone, 268.15 K) was 0.117, the solubility (mole fraction) (in acetone, 273.15 K) was 0.134 and the solubility (mole fraction) (in acetone, 278.15 K) was 0.155. It also gave a solubility (mole fraction) (in acetone, 288.15 K) of 0.213, a solubility (mole fraction) (in acetone, 298.15 K) of 0.275 and a solubility (mole fraction) (in acetone, 308.15 K) of 0.356. The solubility (mole fraction) (in acetone, 318.15 K) was 0.46, the solubility (mole fraction) (in ethanol, 268.15 K) was 0.0065 and the solubility (mole fraction) (in ethanol, 273.15 K) was 0.016. The solubility (mole fraction) (in ethanol, 278.15 K) was 0.0179, the solubility (mole fraction) (in ethanol, 288.15 K) was 0.0367 and the solubility (mole fraction) (in ethanol, 298.15 K) was 0.0706. It also gave a solubility (mole fraction) (in ethanol, 308.15 K) of 0.136, a solubility (mole fraction) (in ethanol, 318.15 K) of 0.273 and a solubility (mole fraction) (in ethyl acetate, 268.15 K) of 0.106. It also gave a solubility (mole fraction) (in ethyl acetate, 273.15 K) of 0.121, a solubility (mole fraction) (in ethyl acetate, 278.15 K) of 0.142 and a solubility (mole fraction) (in ethyl acetate, 288.15 K) of 0.203. For the same molecule, the solubility (mole fraction) (in ethyl acetate, 298.15 K) was 0.261, the solubility (mole fraction) (in ethyl acetate, 308.15 K) was 0.343 and the solubility (mole fraction) (in ethyl acetate, 318.15 K) was 0.437. For the same molecule, the solubility (mole fraction) (in isobutanol, 268.15 K) was 0.0133, the solubility (mole fraction) (in isobutanol, 273.15 K) was 0.0176 and the solubility (mole fraction) (in isobutanol, 278.15 K) was 0.0229. For the same molecule, the solubility (mole fraction) (in isobutanol, 288.15 K) was 0.0469, the solubility (mole fraction) (in isobutanol, 298.15 K) was 0.108 and the solubility (mole fraction) (in isobutanol, 308.15 K) was 0.172. It also gave a solubility (mole fraction) (in isobutanol, 318.15 K) of 0.304, a solubility (mole fraction) (in methanol, 268.15 K) of 0.0245 and a solubility (mole fraction) (in methanol, 273.15 K) of 0.0302. The solubility (mole fraction) (in methanol, 278.15 K) was 0.0361, the solubility (mole fraction) (in methanol, 288.15 K) was 0.062 and the solubility (mole fraction) (in methanol, 298.15 K) was 0.0954. It also gave a solubility (mole fraction) (in methanol, 308.15 K) of 0.173, a solubility (mole fraction) (in methanol, 318.15 K) of 0.304 and a solubility (mole fraction) (in n-butanol, 268.15 K) of 0.0141. It also gave a solubility (mole fraction) (in n-butanol, 273.15 K) of 0.0149, a solubility (mole fraction) (in n-butanol, 278.15 K) of 0.0216 and a solubility (mole fraction) (in n-butanol, 288.15 K) of 0.0471. For the same molecule, the solubility (mole fraction) (in n-butanol, 298.15 K) was 0.0898, the solubility (mole fraction) (in n-butanol, 308.15 K) was 0.151 and the solubility (mole fraction) (in n-butanol, 318.15 K) was 0.284. The solubility (mole fraction) (in n-propanol, 268.15 K) was 0.0246, the solubility (mole fraction) (in n-propanol, 273.15 K) was 0.0271 and the solubility (mole fraction) (in n-propanol, 278.15 K) was 0.0396. For the same molecule, the solubility (mole fraction) (in n-propanol, 288.15 K) was 0.07, the solubility (mole fraction) (in n-propanol, 298.15 K) was 0.129 and the solubility (mole fraction) (in n-propanol, 308.15 K) was 0.19. It also gave a solubility (mole fraction) (in n-propanol, 318.15 K) of 0.298, a solubility (mole fraction) [1] of 0.0129 and a solubility (mole fraction) [2] of 0.0194. For the same molecule, the solubility (mole fraction) [3] was 0.0292, the solubility (mole fraction) [4] was 0.0396 and the solubility (mole fraction) [5] was 0.0839. For the same molecule, the solubility (mole fraction) [6] was 0.151 and the solubility (mole fraction) [7] was 0.287.

`N#Cc1cccnc1` gave a solubility (mole fraction) (in acetone, 268.15 K) of 0.247, a solubility (mole fraction) (in acetone, 273.15 K) of 0.29 and a solubility (mole fraction) (in acetone, 278.15 K) of 0.329. For the same molecule, the solubility (mole fraction) (in acetone, 288.15 K) was 0.438, the solubility (mole fraction) (in acetone, 298.15 K) was 0.541 and the solubility (mole fraction) (in acetone, 308.15 K) was 0.664. It also gave a solubility (mole fraction) (in acetone, 318.15 K) of 0.833, a solubility (mole fraction) (in ethanol, 268.15 K) of 0.0429 and a solubility (mole fraction) (in ethanol, 273.15 K) of 0.0593. For the same molecule, the solubility (mole fraction) (in ethanol, 278.15 K) was 0.0903, the solubility (mole fraction) (in ethanol, 288.15 K) was 0.201 and the solubility (mole fraction) (in ethanol, 298.15 K) was 0.339. The solubility (mole fraction) (in ethanol, 308.15 K) was 0.491, the solubility (mole fraction) (in ethanol, 318.15 K) was 0.627 and the solubility (mole fraction) (in ethyl acetate, 268.15 K) was 0.209. For the same molecule, the solubility (mole fraction) (in ethyl acetate, 273.15 K) was 0.247, the solubility (mole fraction) (in ethyl acetate, 278.15 K) was 0.282 and the solubility (mole fraction) (in ethyl acetate, 288.15 K) was 0.375. It also gave a solubility (mole fraction) (in ethyl acetate, 298.15 K) of 0.478, a solubility (mole fraction) (in ethyl acetate, 308.15 K) of 0.63 and a solubility (mole fraction) (in ethyl acetate, 318.15 K) of 0.803. For the same molecule, the solubility (mole fraction) (in isobutanol, 268.15 K) was 0.028, the solubility (mole fraction) (in isobutanol, 273.15 K) was 0.0396 and the solubility (mole fraction) (in isobutanol, 278.15 K) was 0.0702. For the same molecule, the solubility (mole fraction) (in isobutanol, 288.15 K) was 0.17, the solubility (mole fraction) (in isobutanol, 298.15 K) was 0.3 and the solubility (mole fraction) (in isobutanol, 308.15 K) was 0.435. For the same molecule, the solubility (mole fraction) (in isobutanol, 318.15 K) was 0.6, the solubility (mole fraction) (in methanol, 268.15 K) was 0.0877 and the solubility (mole fraction) (in methanol, 273.15 K) was 0.111. For the same molecule, the solubility (mole fraction) (in methanol, 278.15 K) was 0.153, the solubility (mole fraction) (in methanol, 288.15 K) was 0.267 and the solubility (mole fraction) (in methanol, 298.15 K) was 0.404. The solubility (mole fraction) (in methanol, 308.15 K) was 0.541, the solubility (mole fraction) (in methanol, 318.15 K) was 0.726 and the solubility (mole fraction) (in n-butanol, 268.15 K) was 0.025. It also gave a solubility (mole fraction) (in n-butanol, 273.15 K) of 0.0393, a solubility (mole fraction) (in n-butanol, 278.15 K) of 0.0645 and a solubility (mole fraction) (in n-butanol, 288.15 K) of 0.164. It also gave a solubility (mole fraction) (in n-butanol, 298.15 K) of 0.275, a solubility (mole fraction) (in n-butanol, 308.15 K) of 0.427 and a solubility (mole fraction) (in n-butanol, 318.15 K) of 0.577. For the same molecule, the solubility (mole fraction) (in n-propanol, 268.15 K) was 0.0434, the solubility (mole fraction) (in n-propanol, 273.15 K) was 0.0658 and the solubility (mole fraction) (in n-propanol, 278.15 K) was 0.0976. It also gave a solubility (mole fraction) (in n-propanol, 288.15 K) of 0.214, a solubility (mole fraction) (in n-propanol, 298.15 K) of 0.348 and a solubility (mole fraction) (in n-propanol, 308.15 K) of 0.5. For the same molecule, the solubility (mole fraction) (in n-propanol, 318.15 K) was 0.643, the solubility (mole fraction) [1] was 0.0098 and the solubility (mole fraction) [2] was 0.0152. For the same molecule, the solubility (mole fraction) [3] was 0.024, the solubility (mole fraction) [4] was 0.095 and the solubility (mole fraction) [5] was 0.239. For the same molecule, the solubility (mole fraction) [6] was 0.393 and the solubility (mole fraction) [7] was 0.568.

Source: BigSolDB 2.1
